From the supplement of paper PMC4862054

Tests used:
Assay in all cases: normalised response (% of control), CellTox Green; higher = less cell death (100 = DMSO, 0 = benzethonium chloride kill control)
Conditions in all cases: incubation time: 72 h
HCC1599 = system: HCC1599
In short: (§1)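 The table gives the normalised signal for a single concentration in each entry. Breast cancer cell lines were seeded (20 µl suspension) into 384-well plates holding compound at 5 concentrations in 10-fold steps over a compound-specific 10,000-fold range and incubated 72 h, then read for CellTox Green fluorescence (485/520 nm) and CellTiter-Glo luminescence. Normalisation on each plate used 0.1 % DMSO (100) and a positive kill control (0).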

BT-549 = system: BT-549
In short: as §1

MDA-MB-453 = system: MDA-MB-453
In short: as §1

DU-4475 = system: DU-4475
In short: as §1

CAL-51 = system: CAL-51
In short: as §1

CAL-120 = system: CAL-120
In short: as §1

CAL-148 = system: CAL-148
In short: as §1

BT-474 = system: BT-474
In short: as §1

CAL-85-1 = system: CAL-85-1
In short: as §1

| SMILES | normalised response (HCC1599) | normalised response (BT-549) | normalised response (MDA-MB-453) | normalised response (DU-4475) | normalised response (CAL-51) | normalised response (CAL-120) | normalised response (CAL-148) | normalised response (BT-474) | normalised response (CAL-85-1) |
| --- | --- | --- | --- | --- | --- | --- | --- | --- | --- |
| COc1ccc(C2=N[C@@H](c3ccc(Cl)cc3)[C@@H](c3ccc(Cl)cc3)N2C(=O)N2CCNC(=O)C2)c(OC(C)C)c1 [Nutlin-3] (10000 nM) | 101% | 105% | 92.3% | 91% | 41.2% | 98.2% | 43.8% | 97.6% | 80.3% |
| COC1=CC(c2cc3ccccc3[nH]2)=N/C1=C\c1[nH]c(C)cc1C [Obatoclax] (1000 nM) | 100% | 113% | 105% | 98.1% | 100% | 90.5% | 105% | 97.3% | 101% |
| COC1=CC(c2cc3ccccc3[nH]2)=N/C1=C\c1[nH]c(C)cc1C [Obatoclax] (10000 nM) | 99.9% | 78.2% | 96.2% | 101% | -16.5% | 99.2% | 77.3% | 94.9% | 117% |
| CC(=O)O[C@H]1C(=O)[C@@]2(C)[C@H]([C@H](OC(=O)c3ccccc3)[C@]3(O)C[C@H](OC(=O)[C@H](O)[C@@H](NC(=O)c4ccccc4)c4ccccc4)C(C)=C1C3(C)C)[C@]1(OC(C)=O)CO[C@@H]1C[C@@H]2O [Paclitaxel] (100 nM) | 82.7% | 65.9% | 98.7% | 90.4% | 25.6% | 81.6% | 66.4% | 49.4% | 21.5% |
| CC(=O)O[C@H]1C(=O)[C@@]2(C)[C@H]([C@H](OC(=O)c3ccccc3)[C@]3(O)C[C@H](OC(=O)[C@H](O)[C@@H](NC(=O)c4ccccc4)c4ccccc4)C(C)=C1C3(C)C)[C@]1(OC(C)=O)CO[C@@H]1C[C@@H]2O [Paclitaxel] (1000 nM) | 86.6% | 56.5% | 92.1% | 95.4% | 38.7% | 82.8% | 86.3% | 43.1% | 41.7% |
| CC(C)(C)c1cc(NC(=O)Nc2ccc(-c3cn4c(n3)sc3cc(OCCN5CCOCC5)ccc34)cc2)no1 [Quizartinib] (100 nM) | 106% | 132% | 101% | 101% | 117% | 99.7% | 106% | 100% | 107% |
| CC(C)(C)c1cc(NC(=O)Nc2ccc(-c3cn4c(n3)sc3cc(OCCN5CCOCC5)ccc34)cc2)no1 [Quizartinib] (1000 nM) | 105% | 127% | 112% | 102% | 111% | 103% | 103% | 101% | 62.5% |
| O=C(c1ccc(OCCN2CCCCC2)cc1)c1c(-c2ccc(O)cc2)sc2cc(O)ccc12 [Raloxifene] (1000 nM) | 102% | 106% | 103% | 104% | 121% | 104% | 92% | 97% | 98.6% |
| Cn1c(=O)c(F)c(Nc2ccc(I)cc2F)c2c(=O)n(C[C@@H](O)CO)cnc21 [TAK-733] (100 nM) | 104% | 89.6% | 112% | 74% | 80.9% | 97% | 105% | 103% | 89% |
| Cn1c(=O)c(F)c(Nc2ccc(I)cc2F)c2c(=O)n(C[C@@H](O)CO)cnc21 [TAK-733] (1000 nM) | 113% | 119% | 109% | 70.7% | 105% | 87.2% | 98.7% | 102% | 41% |
| CCS(=O)(=O)c1cccc(-c2cc(C(=O)NC3CCN(C)CC3)c(C)c3[nH]c4ncc(C)cc4c23)c1 [TAK-901] (100 nM) | 99.7% | 116% | 107% | 100% | 53.8% | 102% | 42% | 101% | 97.9% |
| CCS(=O)(=O)c1cccc(-c2cc(C(=O)NC3CCN(C)CC3)c(C)c3[nH]c4ncc(C)cc4c23)c1 [TAK-901] (1000 nM) | 97.1% | 41% | 105% | 97% | 36.5% | 84.2% | 84.6% | 91.5% | 58.9% |
| CCCC(CCC)C(=O)O [Valproic acid] (10000 nM) | 93.2% | 117% | 107% | 104% | 95.7% | 106% | 102% | 85% | 111% |
